# Laboratory results published in ChEMBL document CHEMBL5465560, “Selectivity Literature for EUbOPEN Chemogenomic Library” (2024).
# What was measured:
# [1] = biological target: Serine/threonine-protein kinase SBK1 (Homo sapiens) (UniProt Q52WX2); assay: Selectivity interaction (KinomeScan (DiscoverX)) EUB0000229b SBK1; details: at 10 µM
# [2] = biological target: Ribosomal protein S6 kinase alpha-5 (Homo sapiens) (UniProt O75582); assay: Selectivity interaction (KinomeScan (DiscoverX)) EUB0000092b RPS6KA5; details: at 10 µM
# [3] = biological target: Tyrosine-protein kinase BTK (Homo sapiens, UniProt Q06187); assay: Selectivity interaction (ProQinase) EUB0000171b BTK
# [4] = biological target: Tyrosine-protein kinase receptor UFO (Homo sapiens, UniProt P30530); assay: Selectivity interaction (Kinase panel (33PanQinase(R) Activity Assay)) EUB0000877a AXL
# [5] = biological target: Phosphorylase b kinase gamma catalytic chain, skeletal muscle/heart isoform (Homo sapiens) (UniProt Q16816); assay: Selectivity interaction (Kinase panel (Z-LYTE Assay)) EUB0001632a PHKG1; details: at 10 µM
# [6] = biological target: T1, Cyclin-dependent kinase 11A (Homo sapiens) (UniProt Q9UQ88); assay: Selectivity interaction (ActivX KiNativ screen (kinase selectivity in THP-1 cell lysates)) EUB0000639a CDK11A; type: subcellular; details: lysate
# T1 sequence (whole entry): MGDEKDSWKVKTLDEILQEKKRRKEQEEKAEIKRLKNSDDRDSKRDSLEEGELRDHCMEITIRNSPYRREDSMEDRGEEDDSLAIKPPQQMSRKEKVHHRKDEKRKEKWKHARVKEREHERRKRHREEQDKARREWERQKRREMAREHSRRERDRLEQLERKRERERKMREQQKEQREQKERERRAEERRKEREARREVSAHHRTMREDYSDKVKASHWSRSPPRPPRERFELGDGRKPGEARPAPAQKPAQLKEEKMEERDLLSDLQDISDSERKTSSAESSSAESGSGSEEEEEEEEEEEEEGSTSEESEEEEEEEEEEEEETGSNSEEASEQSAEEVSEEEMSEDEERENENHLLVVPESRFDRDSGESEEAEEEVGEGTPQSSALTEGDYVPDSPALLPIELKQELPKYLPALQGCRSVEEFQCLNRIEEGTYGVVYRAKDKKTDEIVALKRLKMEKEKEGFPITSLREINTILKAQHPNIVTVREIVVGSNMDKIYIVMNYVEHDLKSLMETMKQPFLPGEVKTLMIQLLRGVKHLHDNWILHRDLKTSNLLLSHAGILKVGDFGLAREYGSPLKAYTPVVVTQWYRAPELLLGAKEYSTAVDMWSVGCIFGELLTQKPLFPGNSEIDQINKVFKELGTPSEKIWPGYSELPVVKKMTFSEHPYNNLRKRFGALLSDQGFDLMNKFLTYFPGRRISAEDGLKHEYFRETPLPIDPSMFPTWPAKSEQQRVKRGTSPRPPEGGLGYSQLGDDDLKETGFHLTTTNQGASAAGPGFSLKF
# [7] = biological target: T2, Aurora kinase A (Homo sapiens) (UniProt O14965); assay: Selectivity interaction (KinomeScan (DiscoverX)) EUB0000595a STK6; details: at 10 µM
# T2 sequence (whole entry): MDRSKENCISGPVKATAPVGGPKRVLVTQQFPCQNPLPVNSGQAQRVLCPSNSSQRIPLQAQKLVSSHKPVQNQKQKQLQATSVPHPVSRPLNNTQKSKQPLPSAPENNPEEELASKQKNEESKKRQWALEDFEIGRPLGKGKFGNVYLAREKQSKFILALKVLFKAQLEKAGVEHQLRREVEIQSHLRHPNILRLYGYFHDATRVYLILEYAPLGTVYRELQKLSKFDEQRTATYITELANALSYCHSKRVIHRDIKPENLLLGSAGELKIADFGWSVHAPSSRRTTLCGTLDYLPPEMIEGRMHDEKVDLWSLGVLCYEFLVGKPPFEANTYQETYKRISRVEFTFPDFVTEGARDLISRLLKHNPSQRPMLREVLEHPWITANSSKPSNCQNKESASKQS
# [8] = biological target: Cyclin-dependent kinase-like 1 (Homo sapiens) (UniProt Q00532); assay: Selectivity interaction (Ambit KINOMEscan and KiNATiv profiling in Jurkat cells) EUB0000090b CDKL1; type: cell-based; details: at 1 µM
# [9] = biological target: T3, Inhibitor of nuclear factor kappa-B kinase subunit alpha (Homo sapiens) (UniProt O15111)
# T3 sequence (whole entry): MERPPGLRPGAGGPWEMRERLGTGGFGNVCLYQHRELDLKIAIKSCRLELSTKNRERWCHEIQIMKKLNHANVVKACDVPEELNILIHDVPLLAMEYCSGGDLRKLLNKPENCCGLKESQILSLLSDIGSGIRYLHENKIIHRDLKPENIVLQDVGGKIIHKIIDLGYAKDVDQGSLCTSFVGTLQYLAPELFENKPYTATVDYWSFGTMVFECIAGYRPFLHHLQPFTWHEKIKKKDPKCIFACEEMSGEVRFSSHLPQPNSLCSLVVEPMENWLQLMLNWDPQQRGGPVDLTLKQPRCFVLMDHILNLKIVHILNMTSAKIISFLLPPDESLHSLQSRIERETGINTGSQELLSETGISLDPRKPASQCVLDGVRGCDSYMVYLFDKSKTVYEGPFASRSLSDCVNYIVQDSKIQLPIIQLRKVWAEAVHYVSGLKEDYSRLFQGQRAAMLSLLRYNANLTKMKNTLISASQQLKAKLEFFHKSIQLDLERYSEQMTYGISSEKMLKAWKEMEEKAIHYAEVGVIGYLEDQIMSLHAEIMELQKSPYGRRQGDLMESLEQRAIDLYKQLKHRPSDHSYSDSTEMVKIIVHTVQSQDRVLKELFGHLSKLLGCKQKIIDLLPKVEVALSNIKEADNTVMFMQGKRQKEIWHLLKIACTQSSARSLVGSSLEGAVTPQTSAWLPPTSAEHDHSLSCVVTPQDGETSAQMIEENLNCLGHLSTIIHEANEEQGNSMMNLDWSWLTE
# Tyrosine-protein kinase BTK, sequence (Q06187 whole entry): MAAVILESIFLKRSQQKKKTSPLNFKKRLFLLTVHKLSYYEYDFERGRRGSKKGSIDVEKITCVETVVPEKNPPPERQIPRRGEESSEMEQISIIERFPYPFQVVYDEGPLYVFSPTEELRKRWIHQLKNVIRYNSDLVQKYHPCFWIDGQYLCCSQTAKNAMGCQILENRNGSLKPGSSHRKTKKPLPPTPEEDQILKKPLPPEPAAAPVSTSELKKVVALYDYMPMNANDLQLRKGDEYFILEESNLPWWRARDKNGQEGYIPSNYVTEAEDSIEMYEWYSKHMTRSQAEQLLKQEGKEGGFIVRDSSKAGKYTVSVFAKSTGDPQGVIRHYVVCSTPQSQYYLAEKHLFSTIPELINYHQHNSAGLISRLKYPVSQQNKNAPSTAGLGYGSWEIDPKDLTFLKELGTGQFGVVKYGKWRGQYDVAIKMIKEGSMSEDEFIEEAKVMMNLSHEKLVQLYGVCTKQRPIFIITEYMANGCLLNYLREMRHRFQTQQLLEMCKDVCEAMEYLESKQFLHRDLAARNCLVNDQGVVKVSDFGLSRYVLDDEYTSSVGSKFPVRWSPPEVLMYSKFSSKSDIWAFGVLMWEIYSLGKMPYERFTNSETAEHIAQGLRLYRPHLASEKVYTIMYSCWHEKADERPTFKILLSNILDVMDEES
# Tyrosine-protein kinase receptor UFO, sequence (P30530 whole entry, canonical isoform): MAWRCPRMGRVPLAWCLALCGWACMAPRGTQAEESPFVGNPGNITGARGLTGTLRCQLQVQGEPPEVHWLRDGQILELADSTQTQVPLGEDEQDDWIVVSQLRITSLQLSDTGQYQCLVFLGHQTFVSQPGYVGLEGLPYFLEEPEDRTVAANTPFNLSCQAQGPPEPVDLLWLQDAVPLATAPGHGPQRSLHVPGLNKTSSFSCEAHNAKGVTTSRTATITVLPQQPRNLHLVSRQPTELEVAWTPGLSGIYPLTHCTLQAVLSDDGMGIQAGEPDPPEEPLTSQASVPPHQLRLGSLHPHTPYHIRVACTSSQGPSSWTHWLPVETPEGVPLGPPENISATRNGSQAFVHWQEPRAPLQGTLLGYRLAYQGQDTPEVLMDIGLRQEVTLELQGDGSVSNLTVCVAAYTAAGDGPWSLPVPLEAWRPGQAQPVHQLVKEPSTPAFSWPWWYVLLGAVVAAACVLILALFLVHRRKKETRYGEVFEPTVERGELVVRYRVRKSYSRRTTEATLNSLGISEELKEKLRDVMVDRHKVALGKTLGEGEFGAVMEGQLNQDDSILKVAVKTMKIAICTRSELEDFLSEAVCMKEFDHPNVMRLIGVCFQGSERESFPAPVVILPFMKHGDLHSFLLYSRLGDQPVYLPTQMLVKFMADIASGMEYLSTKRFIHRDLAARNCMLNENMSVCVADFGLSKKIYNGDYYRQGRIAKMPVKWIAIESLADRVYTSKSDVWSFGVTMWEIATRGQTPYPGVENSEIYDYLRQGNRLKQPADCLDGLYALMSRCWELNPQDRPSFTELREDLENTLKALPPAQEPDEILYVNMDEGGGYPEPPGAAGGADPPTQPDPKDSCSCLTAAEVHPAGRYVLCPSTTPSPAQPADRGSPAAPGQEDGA
# Serine/threonine-protein kinase SBK1 (Homo sapiens), sequence (Q52WX2 whole entry): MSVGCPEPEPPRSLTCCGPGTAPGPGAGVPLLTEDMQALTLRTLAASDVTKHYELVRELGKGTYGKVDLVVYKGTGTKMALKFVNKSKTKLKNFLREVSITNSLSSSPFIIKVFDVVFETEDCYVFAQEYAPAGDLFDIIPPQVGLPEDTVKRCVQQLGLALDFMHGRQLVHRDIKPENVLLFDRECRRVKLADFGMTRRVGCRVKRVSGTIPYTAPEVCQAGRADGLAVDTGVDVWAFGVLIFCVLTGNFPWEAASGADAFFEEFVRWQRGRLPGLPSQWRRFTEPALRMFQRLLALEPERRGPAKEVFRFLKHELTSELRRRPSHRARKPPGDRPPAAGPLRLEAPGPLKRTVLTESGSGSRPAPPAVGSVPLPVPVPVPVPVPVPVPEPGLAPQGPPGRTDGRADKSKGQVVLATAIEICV
# Ribosomal protein S6 kinase alpha-5 (Homo sapiens), sequence (O75582 whole entry, looked up): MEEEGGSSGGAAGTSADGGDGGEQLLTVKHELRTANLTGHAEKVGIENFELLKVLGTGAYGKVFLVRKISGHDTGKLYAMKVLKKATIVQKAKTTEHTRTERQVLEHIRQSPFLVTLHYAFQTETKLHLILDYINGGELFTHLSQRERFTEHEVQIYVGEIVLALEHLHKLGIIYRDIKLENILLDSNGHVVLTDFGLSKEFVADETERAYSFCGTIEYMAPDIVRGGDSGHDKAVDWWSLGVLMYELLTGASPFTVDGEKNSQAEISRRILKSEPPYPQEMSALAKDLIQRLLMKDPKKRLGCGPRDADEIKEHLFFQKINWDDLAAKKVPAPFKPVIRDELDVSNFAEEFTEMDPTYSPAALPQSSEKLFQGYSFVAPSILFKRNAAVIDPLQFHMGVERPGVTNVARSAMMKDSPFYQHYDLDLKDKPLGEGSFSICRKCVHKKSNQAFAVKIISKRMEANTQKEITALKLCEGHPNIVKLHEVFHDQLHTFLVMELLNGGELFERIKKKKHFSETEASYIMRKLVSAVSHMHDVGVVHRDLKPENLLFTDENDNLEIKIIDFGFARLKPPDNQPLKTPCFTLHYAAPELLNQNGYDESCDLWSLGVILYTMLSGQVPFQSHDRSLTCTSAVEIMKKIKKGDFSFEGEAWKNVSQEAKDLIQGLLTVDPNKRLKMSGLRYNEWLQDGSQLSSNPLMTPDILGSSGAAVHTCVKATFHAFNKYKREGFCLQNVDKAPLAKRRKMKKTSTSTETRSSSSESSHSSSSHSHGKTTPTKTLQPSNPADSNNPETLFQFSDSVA
# Phosphorylase b kinase gamma catalytic chain, skeletal muscle/heart isoform (Homo sapiens), sequence (Q16816 whole entry, looked up, canonical isoform): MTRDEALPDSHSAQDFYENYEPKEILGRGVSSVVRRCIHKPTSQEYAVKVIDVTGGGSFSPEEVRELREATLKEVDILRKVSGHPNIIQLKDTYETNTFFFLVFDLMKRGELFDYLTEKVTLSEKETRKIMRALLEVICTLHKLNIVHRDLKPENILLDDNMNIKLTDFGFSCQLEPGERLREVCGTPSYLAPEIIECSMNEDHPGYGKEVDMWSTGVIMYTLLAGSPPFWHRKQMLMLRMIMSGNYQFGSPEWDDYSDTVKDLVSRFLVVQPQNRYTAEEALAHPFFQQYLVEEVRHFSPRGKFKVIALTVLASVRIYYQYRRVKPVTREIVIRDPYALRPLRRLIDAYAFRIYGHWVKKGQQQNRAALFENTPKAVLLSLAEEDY
# Cyclin-dependent kinase-like 1 (Homo sapiens), sequence (Q00532 whole entry): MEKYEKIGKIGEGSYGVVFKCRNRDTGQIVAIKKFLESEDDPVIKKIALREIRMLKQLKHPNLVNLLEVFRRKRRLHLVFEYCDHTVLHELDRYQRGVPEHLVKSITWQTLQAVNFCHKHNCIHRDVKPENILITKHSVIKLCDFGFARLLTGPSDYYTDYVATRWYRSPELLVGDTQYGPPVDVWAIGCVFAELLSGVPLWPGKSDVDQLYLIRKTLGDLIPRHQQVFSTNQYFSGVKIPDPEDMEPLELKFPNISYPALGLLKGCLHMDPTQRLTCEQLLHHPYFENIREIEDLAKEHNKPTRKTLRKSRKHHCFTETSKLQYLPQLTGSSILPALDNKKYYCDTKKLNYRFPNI
structure (smiles),measurement,setting,value
COc1cc(N(C)c2ccnc3ccc(C(F)(F)F)cc23)cc(OC)c1OC,% binding,[1],92%
CCC(=O)N1CCN(c2ccc(-n3c(=O)ccc4cnc5ccc(-c6cnc7ccccc7c6)cc5c43)cc2C(F)(F)F)CC1,% of control,[2],100%
C=CC(=O)Nc1cccc(C(=O)Nc2ccc(Nc3cc(-c4[nH]c(SC)nc4C)ccn3)cc2)c1,% of control,[3]; at 1 µM,101%
same,% of control,[3]; at 5 µM,87%
CCC(=O)N1CC[C@H](Nc2ncnc3c2CN(c2cnc(OC)c(C(F)(F)F)c2)CC3)C1 [LENIOLISIB],IC50,[4],> 10 µM
Cn1cc(-n2cnc3c(NCc4nc5cc(Cl)c(Cl)cc5[nH]4)nc(N4CCOCC4)nc32)cn1,% of control,[5],-6.26%
CC[C@@H]1[C@H](F)C(=O)N[C@@H]1COc1nccc2cc(C(N)=O)c(OC)cc12 [ZIMLOVISERTIB],% of inhibition,[6]; at 0.01 µM,10.4%
same,% of inhibition,[6]; at 0.04 µM,-11.1%
same,% of inhibition,[6]; at 0.2 µM,2.6%
same,% of inhibition,[6]; at 1 µM,7.8%
same,% of inhibition,[6]; at 5 µM,18.7%
COCC(=O)NC/C=C/c1ccc2ncnc(Nc3ccc(Oc4ccc(C)nc4)c(C)c3)c2c1 [CP-724714],% of control,[7],100%
CN(C)C/C=C/C(=O)Nc1ccc(C(=O)N2CCCC(Nc3ncc(Cl)c(-c4c[nH]c5ccccc45)n3)C2)cc1 (centres undefined),% of control,[8],38%
Cc1cnc(Nc2ccc(F)cc2Cl)nc1-c1c[nH]c(C(=O)N[C@H](CO)c2cccc(Cl)c2)c1,% of inhibition,[9],0%
